What was measured:
[1] = test system: RS4;11 (BCL-2 dependent acute lymphoblastic leukemia cell line); assay: RS4;11 Cell Proliferation Assay; assay type: cell-based; conditions: Homo sapiens, RS4-11, RS4;11 cells, read-out: Cellular proliferation assay (IC50, nM) RS4
How it was run: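 RS4;11 cells, 50,000 per well in RPMI-1640 with 10% FBS, treated 48 h at 37 °C with a 10-point dilution series topping at 1 μM. Viability read by CellTiter-Glo ATP luminescence; mean IC50 reported.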

[2] = molecular target: Recombinant human Bcl-2 protein (Homo sapiens (Human), UniProt P10415); assay: Bcl-2 TR-FRET Assay; assay type: binding; conditions: Bcl-2 wild type, TR-FRET; read-out: Biochemical assay (IC50, nM) Bcl-2 WT
How it was run: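 Compounds were pre-incubated with 0.05 nM recombinant Bcl-2 for 0.5 h at room temperature in potassium phosphate buffer, pH 7.5. FITC-Bak peptide (0.5 nM) and Tb-cryptate antibody were then added for 1 h. Percent inhibition from TR-FRET signals gave IC50 values.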

[3] = molecular target: recombinant human Bcl-2-G101V protein (Homo sapiens (Human), UniProt P10415, G101V); assay: Bcl-2-G101V TR-FRET Assay; assay type: binding; conditions: Bcl-2 G101V mutant, TR-FRET; read-out: Biochemical assay (IC50, nM) Bcl-2 G101V
How it was run: (§1)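 IC50 values derive from four-parameter logistic fitting of percent inhibition data. That inhibition of ligand binding to Bcl-2-G101V is computed from the 490 nm/520 nm TR-FRET ratio under 337 nm excitation, over a rising compound concentration series.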

[4] = test system: recombinant human Bcl-2-G101V protein; assay: Bcl-2-G101V TR-FRET Assay; assay type: binding; conditions: ratio of biochemical IC50 Bcl-2 G101V / Bcl-2 WT
How it was run: as §1

[5] = test system: BCL-2 G101V knock-in cell line H96 (derive from RS4;11); assay: Bcl 2-G101V Knock-In RS4;11 Cell Proliferation Assay; assay type: cell-based; conditions: Homo sapiens, RS4;11 Bcl-2 G101V knock-in clone H96, 48 hrs, CellTiter-GLO, read-out: Cellular proliferation assay (IC50, nM) RS4
How it was run: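 H96, a CRISPR-generated RS4;11 clone carrying BCL2-G101V knock-in (WES/RNA-seq validated), seeded 50,000 per well and exposed 48 h at 37 °C to 10-point dilutions topping at 1 or 10 μM. Viability by CellTiter-Glo luminescence; mean IC50.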

## COc1ccc(CN2CCN(C3CC4(C3)CN(c3ccc(C(=O)NS(=O)(=O)c5ccc(NC[C@H]6CC[C@](C)(O)CC6)c([N+](=O)[O-])c5)c(Oc5cnc6[nH]ccc6c5)c3)C4)[C@H](c3ccccc3C(C)C)C2)cn1 [Example 254, 2-((1H-pyrrolo[2,3-b]pyridin-5-yl)oxy)-N-((4-((((1r,4r)-4-hydroxy-4-methylcyclohexyl)methyl)amino)-3-nitrophenyl)sulfonyl)-4-(6-((R)-2-(2-isopropylphenyl)-4-((6-methoxypyridin-3-yl)methyl)piperazin-1-yl)-2-azaspiro[3.3]heptan-2-yl)benzamide]
[1]
  IC50: 0.09 nM
[2]
  IC50: 0.017 nM
[3]
  IC50: 0.067 nM
[4]
  Ratio of Bcl-2 G101V/WT: 3.9
[5]
  IC50: 0.25 nM

## CC(C)c1ccccc1[C@@H]1CN(CC2C3CC4CC(C3)CC2C4)CCN1C1CC2(CCN(c3ccc(C(=O)NS(=O)(=O)c4ccc(NC[C@H]5CC[C@](C)(O)CC5)c([N+](=O)[O-])c4)c(Oc4cnc5[nH]ccc5c4)c3)CC2)C1 (stereo partly drawn) [Example 259, 2-((1H-pyrrolo[2,3-b]pyridin-5-yl)oxy)-4-(2-((2R)-4-(((1R,3S,5R)-adamantan-2-yl)methyl)-2-(2-isopropylphenyl)piperazin-1-yl)-7-azaspiro[3.5]nonan-7-yl)-N-((4-((((1r,4r)-4-hydroxy-4-methylcyclohexyl)methyl)amino)-3-nitrophenyl)sulfonyl)benzamide]
[1]
  IC50: 0.55 nM
[2]
  IC50: 0.91 nM
[3]
  IC50: 3.4 nM
[4]
  Ratio of Bcl-2 G101V/WT: 3.8
[5]
  IC50: 4.2 nM

## COc1cc(CN2CCN(C3CC4(CCN(c5ccc(C(=O)NS(=O)(=O)c6ccc(NC[C@H]7CC[C@](C)(O)CC7)c([N+](=O)[O-])c6)c(Oc6cnc7[nH]ccc7c6)c5)CC4)C3)[C@H](c3ccccc3C(C)C)C2)ccc1C(C)C [Example 263, 2-((1H-pyrrolo[2,3-b]pyridin-5-yl)oxy)-N-((4-((((1r,4r)-4-hydroxy-4-methylcyclohexyl)methyl)amino)-3-nitrophenyl)sulfonyl)-4-(2-((R)-4-(4-isopropyl-3-methoxybenzyl)-2-(2-isopropylphenyl)piperazin-1-yl)-7-azaspiro[3.5]nonan-7-yl) benzamide]
[1]
  IC50: 0.18 nM
[2]
  IC50: 1.3 nM
[3]
  IC50: 4.9 nM
[4]
  Ratio of Bcl-2 G101V/WT: 3.9
[5]
  IC50: 1.01 nM

## COc1cc(CN2CCN(C3CC4(CCN(c5ccc(C(=O)NS(=O)(=O)c6ccc(NC[C@H]7CC[C@](C)(O)CC7)c([N+](=O)[O-])c6)c(Oc6cnc7[nH]cc(F)c7c6)c5)CC4)C3)[C@H](c3ccccc3C(C)C)C2)ccc1C(C)C [Example 264, 2-((3-fluoro-1H-pyrrolo[2,3-b]pyridin-5-yl)oxy)-N-((4-((((1r,4r)-4-hydroxy-4-methylcyclohexyl)methyl)amino)-3-nitrophenyl)sulfonyl)-4-(2-((R)-4-(4-isopropyl-3-methoxybenzyl)-2-(2-isopropylphenyl)piperazin-1-yl)-7-azaspiro[3.5]nonan-7-yl)benzamide]
[1]
  IC50: 0.26 nM
[2]
  IC50: 1.9 nM
[3]
  IC50: 7.3 nM
[4]
  Ratio of Bcl-2 G101V/WT: 3.8
[5]
  IC50: 0.78 nM

## CCc1ccc(CN2CCN(C3CC4(CCN(c5ccc(C(=O)NS(=O)(=O)c6ccc(NC[C@H]7CC[C@](C)(O)CC7)c([N+](=O)[O-])c6)c(Oc6cnc7[nH]ccc7c6)c5)CC4)C3)[C@H](c3ccccc3C(C)C)C2)cc1OC [Example 265, 2-((1H-pyrrolo[2,5-b]pyridin-5-yl)oxy)-4-(2-((R)-4-(4-ethyl-3-methoxybenzyl)-2-(2-isopropylphenyl)piperazin-1-yl)-7-azaspiro[3.5]nonan-7-yl)-N-((4-((((1r,4r)-4-hydroxy-4-methylcyclohexyl)methyl)amino)-3-nitrophenyl)sulfonyl)benzamide]
[1]
  IC50: 0.15 nM
[2]
  IC50: 0.66 nM
[3]
  IC50: 1.9 nM
[4]
  Ratio of Bcl-2 G101V/WT: 3
[5]
  IC50: 0.65 nM

## CCc1ccc(CN2CCN(C3CC4(CCN(c5ccc(C(=O)NS(=O)(=O)c6ccc(NC[C@H]7CC[C@](C)(O)CC7)c([N+](=O)[O-])c6)c(Oc6cnc7[nH]cc(F)c7c6)c5)CC4)C3)[C@H](c3ccccc3C(C)C)C2)cc1OC [Example 266, 4-(2-((R)-4-(4-ethyl-3-methoxybenzyl)-2-(2-isopropylphenyl)piperazin-1-yl)-7-azaspiro[3.5]nonan-7-yl)-2-((3-fluoro-1H-pyrrolo[2,3-b]pyridin-5-yl)oxy)-N-((4-((((1r,4r)-4-hydroxy-4-methylcyclohexyl)methyl)amino)-3-nitrophenyl)sulfonyl) benzamide]
[1]
  IC50: 0.22 nM
[2]
  IC50: 1.4 nM
[3]
  IC50: 4.1 nM
[4]
  Ratio of Bcl-2 G101V/WT: 3
[5]
  IC50: 0.66 nM

## COc1cc(CN2CCN(C3CC4(C3)CN(c3ccc(C(=O)NS(=O)(=O)c5ccc(NC[C@H]6CC[C@](C)(O)CC6)c([N+](=O)[O-])c5)c(Oc5cnc6[nH]cc(F)c6c5)c3)C4)[C@H](c3ccccc3C(C)C)C2)ccc1C(C)C [Example 269, 2-((3-fluoro-1H-pyrrolo[2,3-b]pyridin-5-yl)oxy)-N-((4-((((1r,4r)-4-hydroxy-4-methylcyclohexyl)methyl)amino)-3-nitrophenyl)sulfonyl)-4-(6-((R)-4-(4-isopropyl-3-methoxybenzyl)-2-(2-isopropylphenyl)piperazin-1-yl)-2-azaspiro[3.3]heptan-2-yl) benzamide]
[1]
  IC50: 0.17 nM
[2]
  IC50: 2.1 nM
[3]
  IC50: 4.9 nM
[4]
  Ratio of Bcl-2 G101V/WT: 2.4
[5]
  IC50: 0.41 nM

## COc1cc(CN2CCN(C3CC4(C3)CN(c3ccc(C(=O)NS(=O)(=O)c5ccc(NC[C@H]6CC[C@](C)(O)CC6)c([N+](=O)[O-])c5)c(Oc5cnc6[nH]ccc6c5)c3)C4)[C@H](c3ccccc3C(C)C)C2)ccc1C(C)C [Example 270, 2-((1H-pyrrolo[2,3-b]pyridin-5-yl)oxy)-N-((4-((((1r,4r)-4-hydroxy-4-methylcyclohexyl)methyl)amino)-3-nitrophenyl)sulfonyl)-4-(6-((R)-4-(4-isopropyl-3-methoxybenzyl)-2-(2-isopropylphenyl)piperazin-1-yl)-2-azaspiro[3.3]heptan-2-yl) benzamide]
[1]
  IC50: 0.16 nM
[2]
  IC50: 1.1 nM
[3]
  IC50: 2.9 nM
[4]
  Ratio of Bcl-2 G101V/WT: 2.6
[5]
  IC50: 0.64 nM

## CCc1ccc(CN2CCN(C3CC4(C3)CN(c3ccc(C(=O)NS(=O)(=O)c5ccc(NC[C@H]6CC[C@](C)(O)CC6)c([N+](=O)[O-])c5)c(Oc5cnc6[nH]ccc6c5)c3)C4)[C@H](c3ccccc3C(C)C)C2)cc1OC [Example 271, 2-((1H-pyrrolo[2,3-b]pyridin-5-yl)oxy)-4-(6-((R)-4-(4-ethyl-3-methoxybenzyl)-2-(2-isopropylphenyl)piperazin-1-yl)-2-azaspiro[3.3]heptan-2-yl)-N-((4-((((1r,4r)-4-hydroxy-4-methylcyclohexyl)methyl)amino)-3-nitrophenyl)sulfonyl)benzamide]
[1]
  IC50: 0.11 nM
[2]
  IC50: 0.47 nM
[3]
  IC50: 1.5 nM
[4]
  Ratio of Bcl-2 G101V/WT: 3.1
[5]
  IC50: 0.4 nM

## COc1cc(CN2CCN(C3CC4(CCN(c5ccc(C(=O)NS(=O)(=O)c6ccc(NC[C@H]7CC[C@](C)(O)CC7)c([N+](=O)[O-])c6)c(Oc6cnc7[nH]ccc7c6)c5)CC4)C3)[C@H](c3ccccc3C(C)C)C2)ccc1C(F)(F)F [Example 277, 2-((1H-pyrrolo[2,3-b]pyridin-5-yl)oxy)-N-((4-((((1r,4r)-4-hydroxy-4-methylcyclohexyl)methyl)amino)-3-nitrophenyl)sulfonyl)-4-(2-((R)-2-(2-isopropylphenyl)-4-(3-methoxy-4-(trifluoromethyl)benzyl)piperazin-1-yl)-7azaspiro [3.5]nonan-7-yl)benzamide]
[1]
  IC50: 0.22 nM
[2]
  IC50: 1.4 nM
[3]
  IC50: 3.2 nM
[4]
  Ratio of Bcl-2 G101V/WT: 2.2
[5]
  IC50: 1.9 nM

## COc1cc(CN2CCN(C3CC4(CCN(c5ccc(C(=O)NS(=O)(=O)c6ccc(NC[C@H]7CC[C@](C)(O)CC7)c([N+](=O)[O-])c6)c(Oc6cnc7[nH]cc(F)c7c6)c5)CC4)C3)[C@H](c3ccccc3C(C)C)C2)ccc1C(F)F [Example 287]
[1]
  IC50: 0.16 nM
[2]
  IC50: 0.87 nM
[3]
  IC50: 2.3 nM
[4]
  Ratio of Bcl-2 G101V/WT: 2.6
[5]
  IC50: 0.55 nM

## COc1cc(CN2CCN(C3CC4(C3)CN(c3ccc(C(=O)NS(=O)(=O)c5ccc(NC[C@H]6CC[C@](C)(O)CC6)c([N+](=O)[O-])c5)c(Oc5cnc6[nH]ccc6c5)c3)C4)[C@H](c3ccccc3C(C)C)C2)ccc1C(F)(F)F [Example 290, 2-((1H-pyrrolo[2,3-b]pyridin-5-yl)oxy)-N-((4-((((1r,4r)-4-hydroxy-4-methylcyclohexyl)methyl)amino)-3-nitrophenyl)sulfonyl)-4-(6-((R)-2-(2-isopropylphenyl)-4-(3-methoxy-4-(trifluoromethyl)benzyl)piperazin-1-yl)-2-azaspiro [3.3]heptan-2-yl)benzamide]
[1]
  IC50: 0.2 nM
[2]
  IC50: 0.9 nM
[3]
  IC50: 2.2 nM
[4]
  Ratio of Bcl-2 G101V/WT: 2.5
[5]
  IC50: 1.5 nM

— US20240376097A1, “BCL-2 Inhibitor” (BeiGene Ltd., priority 2020, published 2024)
